Read-outs that look alike come from different tables or passages of the source. Starred links: 1 amine or outer side, 2 acyl side, 3 side chain; linkers in the order of their positions; H or OH if unused. Positions of bridges follow the written chain, without caps; N, C: chain ends. Non-standard residues stand in square brackets, D forms with d. Residues, ends and D or L forms follow the SMILES beside them. Trp(7-Me) = Cc1cccc2c(C[C@H](N)C(=O)O)c[nH]c12; Abu(4-yl) = O=C([C@H](CC[*:3])N[*:1])[*:2]; 2Nal = N[C@@H](Cc1ccc2ccccc2c1)C(=O)O; AEF = NCCOc1ccc(C[C@H](N)C(=O)O)cc1; αMeF = C[C@](N)(Cc1ccccc1)C(=O)O; Cit = NC(=O)NCCC[C@H](N)C(=O)O; Pen = CC(C)(S)[C@H](N)C(=O)O; αMeK = C[C@](N)(CCCCN)C(=O)O; Aib = CC(C)(N)C(=O)O
Legend:
Assay in all cases: cell-based
IL-23R [1] = target: T1, IL-23R (Homo sapiens, UniProt Q5VWK5); conditions: PBMC pSTAT3 IC50 (nM), PBMCs from healthy donors, IL-23 5 ng/mL, 30 minutes, phosphorylated STAT3
IL-23R [2] = target: T1, IL-23R
Experimental: After 7 days, cells were centrifuged, and resuspended in complete media at IE6 cells/mL. […] After 20 to 24 hours, IFNγ in the supernatant was quantified using Quantikine ELISA (RnD, Cat #DIF50).

IL-23R [3] = target: T1, IL-23R; remark: listed apart in the source
Text: DB Cells IL23R pSTAT3 Cell Assay
Changes in phospho-STAT3 levels in the cell lysates were detected using the Cisbio HTRF pSTAT3 Cellular Assay Kit, according to manufacturer's Two Plate Assay protocol.

T1 sequence (Q5VWK5 24-629): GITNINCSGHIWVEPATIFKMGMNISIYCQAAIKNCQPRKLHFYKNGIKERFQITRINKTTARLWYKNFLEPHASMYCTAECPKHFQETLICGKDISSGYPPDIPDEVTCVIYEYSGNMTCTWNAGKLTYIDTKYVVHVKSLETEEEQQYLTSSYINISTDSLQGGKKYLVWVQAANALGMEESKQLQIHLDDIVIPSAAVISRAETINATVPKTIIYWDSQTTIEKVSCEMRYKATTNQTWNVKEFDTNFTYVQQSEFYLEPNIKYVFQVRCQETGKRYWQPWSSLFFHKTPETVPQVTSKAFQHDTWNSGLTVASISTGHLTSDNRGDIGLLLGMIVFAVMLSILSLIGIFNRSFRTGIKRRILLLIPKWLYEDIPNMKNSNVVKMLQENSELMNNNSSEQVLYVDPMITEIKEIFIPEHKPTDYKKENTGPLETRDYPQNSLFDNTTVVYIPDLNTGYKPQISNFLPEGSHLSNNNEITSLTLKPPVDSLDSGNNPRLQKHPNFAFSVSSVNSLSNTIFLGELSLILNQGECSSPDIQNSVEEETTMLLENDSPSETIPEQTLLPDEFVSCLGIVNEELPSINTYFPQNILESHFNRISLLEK

Structure (SMILES)	IC50 (IL-23R [1])	IC50 (IL-23R [2])	IC50 (IL-23R [3])
CCC(=O)N[C@H](CCCNC(=N)N)C(=O)N[C@@H]1C(=O)N[C@@H](CCC(N)=O)C(=O)N[C@@H]([C@@H](C)O)C(=O)N[C@@H](Cc2c[nH]c3ccccc23)C(=O)N[C@@H](CCC(N)=O)C(=O)N[C@H](C(=O)N[C@@H](Cc2ccc(OCCN)cc2)C(=O)N[C@@H](Cc2ccc3ccccc3c2)C(=O)NC2(C(=O)N[C@@H](CCCCNC(=O)C(F)(F)F)C(=O)N[C@@H](CC(N)=O)C(=O)NC3(C(N)=O)CCOCC3)CCOCC2)C(C)(C)SSC1(C)C [Compound 6, [Propionic_acid]-[(D)Arg]-[Pen]-Q-T-W-Q-[Pen]-Phe[4-(2-aminoethoxy)]-[2-Nal]-[THP]-[Lys(COCF3)]-N-[THP]-NH2]	8.6 nM	16.8 nM	
CC(=O)NCCCC[C@@H]1NC(=O)[C@H](Cc2c[nH]c3c(C)cccc23)NC(=O)[C@@H](CCCCN)NC(=O)[C@H](CC(N)=O)NC(=O)[C@@H](NC(C)=O)C(C)(C)SSC(C)(C)[C@@H](C(=O)N[C@@H](Cc2ccc(OCCN)cc2)C(=O)N[C@@H](Cc2ccc3ccccc3c2)C(=O)N[C@@](C)(CCCCN)C(=O)N[C@@H](CCCCNC(C)=O)C(=O)N[C@@H](CC(N)=O)C(=O)N[C@H](CC(C)C)C(N)=O)NC1=O [Compound 73, Ac-[Pen]-N-[(D)Lys]-[W(7-Me)]-[Lys(Ac)]-[Pen]-Phe[4-(2-aminoethoxy)]-[2-Nal]-[a-MeLys]-[Lys(Ac)]-N-[(D)Leu]-NH2] (Ac-[Pen]N[dK][Trp(7-Me)]K(Ac)[Pen][AEF][2Nal][αMeK]K(Ac)N[dL]-NH2; disulfide 1-6)			51.1 nM
CC(=O)NCCCC[C@@H]1NC(=O)[C@H](Cc2c[nH]c3c(C)cccc23)NC(=O)[C@H]([C@@H](C)O)NC(=O)[C@H](CC(N)=O)NC(=O)[C@@H](NC(C)=O)C(C)(C)SSC(C)(C)[C@@H](C(=O)N[C@@H](Cc2ccc(OCCN)cc2)C(=O)N[C@@H](Cc2ccc3ccccc3c2)C(=O)N[C@@](C)(CCCCN)C(=O)N[C@@H](CCCCNC(C)=O)C(=O)N[C@@H](CC(N)=O)C(=O)NC(C)(C)C(=O)N[C@H](CC(N)=O)Cc2ccccc2)NC1=O [Compound 71, Ac-[Pen]-N-T-[W(7-Me)]-[Lys(Ac)]-[Pen]-Phe[4-(2-aminoethoxy)]-[2-Nal]-[a-MeLys]-[Lys(Ac)]-N-[Aib]-[bhPhe]-NH2]			3.39 nM
CC(=O)NCCCC[C@H](NC(=O)[C@](C)(CCCCN)NC(=O)[C@H](Cc1ccc2ccccc2c1)NC(=O)[C@H](Cc1ccc(OCCN)cc1)NC(=O)[C@H]1NC(=O)[C@H](CCCNC(N)=O)NC(=O)[C@H](Cc2c[nH]c3c(C)cccc23)NC(=O)[C@H]([C@@H](C)O)NC(=O)[C@H](CC(N)=O)NC(=O)[C@@H](NC(C)=O)C(C)(C)SSC1(C)C)C(=O)N[C@@H](CC(N)=O)C(=O)NC(C)(C)C(=O)N[C@H](Cc1ccc(O)cc1)C(N)=O [Compound 202, Ac-[Pen]-N-T-[W(7-Me)]-[Cit]-[Pen]-Phe[4-(2-aminoethoxy)]-[2-Nal]-[a-MeLys]-[Lys(Ac)]-N-[Aib]-[(D)Tyr]-NH2] (Ac-[Pen]NT[Trp(7-Me)][Cit][Pen][AEF][2Nal][αMeK]K(Ac)N[Aib][dY]-NH2; disulfide 1-6)			0.637 nM
CC(=O)NCCCC[C@@H]1NC(=O)[C@H](Cc2c[nH]c3c(C)cccc23)NC(=O)[C@H]([C@@H](C)O)NC(=O)[C@H](CCC(N)=O)NC(=O)[C@@H](NC(=O)[C@@H](CCCNC(=N)N)NC(C)=O)CCSC[C@@H](C(=O)N[C@@H](Cc2ccc(OCCN)cc2)C(=O)N[C@@H](Cc2ccc3ccccc3c2)C(=O)N[C@@](C)(CCCCN)C(=O)N[C@@H](CCCCNC(C)=O)C(=O)N[C@@H](CC(N)=O)C(=O)N[C@@](C)(Cc2ccccc2)C(N)=O)NC1=O [Compound 201, Ac-[(D)Arg]-[Abu]-Q-T-[W(7-Me)]-[Lys(Ac)]-[Cys]-Phe[4-(2-aminoethoxy)]-[2-Nal]-[a-MeLys]-[Lys(Ac)]-N-[a-MePhe]-NH2] (Ac-[dR][Abu(4-yl)]QT[Trp(7-Me)]K(Ac)C[AEF][2Nal][αMeK]K(Ac)N[αMeF]-NH2; thioether 2-7)			12.7 nM

From patent US20240383954A1, “PEPTIDE INHIBITORS OF INTERLEUKIN-23 RECEPTOR AND THEIR USE TO TREAT INFLAMMATORY DISEASES” (Janssen Biotech, Inc., priority 2020, published 2024)
